Measured values from patent EP0491041A1, “ANTIVIRAL DRUG” (NIPPON SHINYAKU COMPANY, LIMITED, priority 1989, dated 1991).
≈ marks a conversion by molar mass, not a printed value.

How the values were obtained:
virus = assay: Antiviral action test: screening by inhibition of cell degeneration effect (CPE) in virus-infected HeLa cells; assay type: cell-based; conditions: amount of added drug whereby the CPE became 50%, M.O.I = 0.002, culture for three days
Procedure: HeLa cells were subjected to subcultured by monolayer culture (Eagle's MEM-10% CS) and infected as M.O.I. (multiplicity of infection) = 0.01.
On the first day, HeLa cells were spread in a 75 cm³ flask and cultured on a one-day growth medium (Eagle's MEM-10% CS). On the second day, old medium was removed after confirming the formation of cell sheet, then M.O.I was made 0.01 PFU/cell and 0.5 ml of virus solution was added. The original virus solution was diluted with PBS-3% FCS solution. Operation of the virus inoculation was conducted by tilting for 1 hour at room temperature. After virus was inoculated on the cells, the virus-inoculated solution was removed, washed twice with 10 ml PBS and the residual virus solution was removed. Then 15 ml of maintenance medium (Eagle's MEM-1% CS) was added and cultured at 37°C for 2 days. The cells were observed from time to time and the culture was continued until cell fusion and cell rounding were confirmed. After the culture, medium was recovered which was used as a virus solution and was stored at -20°C until actual use.
The 78 cm³ flask containing HeLa cells which were subjected to a monolayer maintenance subculture was taken out, the old medium was discarded, 2-3 ml of 0.25% trypsine (Difco = 1:250)-0.02% EDTA/PBS(-) solution was added, tilted for a few seconds, the trypsine solution was removed and warmed at 37°C for 5 minutes. Then fresh medium was added, pipetted with a Komagome pipette and the cells were homogeneously dispersed.
Cells were counted using a cytometer, then fresh medium was added, diluted to make the cell concentration 5 x 10⁵ cells/ml, 2 ml of that was added to a laboratory dish of 35 mm diameter and cultured in a CO₂-incubator at 37°C for one day to prepare cell sheet.
The virus solution was diluted by a diluting solution to make diluted solutions of ten-times difference or step. The laboratory dish wherein HeLa cells were cultured on the previous day was taken out from the incubator, old medium was discarded and the cells were washed with each 2 ml of PBS twice. Properly diluted virus solution (0.2 ml) was added to each laboratory dish, subjected to a tilting at room temperature for 60 minutes immediately and virus was inoculated. Then the virus solution was removed, each 2 ml of 0.5% methylcellulose/Eagle's MEM-1% CS was added and cultured in a CO₂ incubator for 4 days.
The cultured laboratory dish was taken out from the CO₂-incubator and methylcellulose medium was removed. Then cells were washed with 2 ml of PDS, 2 ml of methanol was added, allowed to stand for 10 minutes and cells were immobilized and, at the same time, virus was sterilized. Hematoxylin dyeing solution (2 ml) was added to the laboratory dish which was immobilized with methanol, allowed to stand for about 10 minutes, washed with water and air-dried at room temperature. Since the cells destructed with virus were not dyed, plaque area was noted as a void and the plaque numbers were counted whereby virus value (PFU/ml) (Plaque forming units/ml) was measured.
HeLa cells during the subculture were dispersed with trypsine liquid-EDTA solution, 5 x 10⁵ cells/pore were embedded on a plate having 24 pores and cultured overnight at 37°C in a CO₂-incubator to prepare cell sheet.
As mentioned above, old medium was discarded, the cells were washed with PBS, the virus solution was diluted to make M.O.I = 0.002, 0.1 ml of it was added to each pore, subjected to a tilting at room temperature for 60 minutes and virus was inoculated to the cell.
Virus solution was removed from the cells after inoculation of virus, the cells were washed with 2 ml of PBS, each 1 ml of maintenance medium was added to each pore, then each 10 µl of the drug was added and the cells were cultured in a CO₂-incubator. Culture was conducted for three days.
The cells on the plate were observed under an invert microscope. Cell degeneration effect (CPE) was observed as cell fusion and making the cells round. […]

[1] = Acute toxicity test in mice; assay type: in vivo; conditions: male mice, ddY strain, observation for one week
Procedure: Four male mice (ddY strain; six weeks age) were used for each drug tested.
In the intraperitoneal administration, each drug was suspended in 0.5% CMC-physiological saline solution and 0.1 ml (per 10 g body weight of mouse) of the suspension was intraperitoneally given to mouse. In the case of oral administration, each drug was suspended in 0.5% CMC-physiological saline solution and 0.2 ml (per 10 g body weight of mouse) of the suspension was given orally. Observation was started soon after administration and, after observation for one week, the mice were killed by chloroform and subjected to autopsied. LD₅₀ of each drug tested was given in the following tables wherefrom it is clear that the compounds of the present invention are safe.

SMILES	EC50 (50% CPE inhibition) (virus)	L D ₅₀ ([1]; Intraperitoneal Administration)	L D ₅₀ ([1]; Oral Administration)
COc1ccc(C(C)=CCN2C[C@H](O)[C@@H](O)[C@H](O)[C@H]2CO)cc1 [Compound No. 103, N-(magga-Methyl-4-methoxycinnamyl)moranoline]	30 µg/mL (≈ 92.8 µM)	> 300 mg/kg	> 5,000 mg/kg
CC(=CCN1C[C@H](O)[C@@H](O)[C@H](O)[C@H]1CO)c1ccc(C)cc1 [Compound No. 104, N-(gamma-Methyl-4-methylcinnamyl)moranoline]	10 µg/mL (≈ 32.5 µM)	> 300 mg/kg	> 5,000 mg/kg
OC[C@@H]1[C@@H](O)[C@H](O)[C@@H](O)CN1CCCCOc1ccc(Cl)cc1 [Compound No. 141, N-[4-(4-Chlorophenoxy)butyl]moranoline]	1 µg/mL (≈ 2.89 µM)	> 300 mg/kg	> 5,000 mg/kg
